Active and inactive are the calls of the source.
Tests used:
H4 = test: Luminescence Cell-Based Dose Response HTS to Identify Activators of 5'UTR Stem-Loop Driven Prion Protein mRNA Translation in H4 Neuroglioblastoma Cells. [Related pubchem assays: 1829 (Project Summary), 1814 (Primary HTS)]; type: functional; conditions: Homo sapiens
[1] = Luminescence Cell-Based Dose Response HTS to Identify Activators of Luciferase Translation or Activity in H4 […] Cells. [Related pubchem assays: 1829 (Project Summary), 1814 (Primary HTS)]; type: functional
Cytochrome P450 2C19 = Cytochrome P450 2C19 (Homo sapiens, UniProt P33261); test: Cytochrome panel assay with activity outcomes. Panel member name: p450-cyp2c19 Compounds with AC50 equal or less than 10 uM are considered active; type: functional; conditions: read-out: AC50
Cytochrome P450 2C9 = Cytochrome P450 2C9 (Homo sapiens, UniProt P11712)
[2] = molecular target: T1, Rac GTPase-activating protein 1 (Homo sapiens, UniProt Q9H0H5); test: MgcRacGAP GTPase-activating activity inhibitors, confirmation, biochemical, ADP Hunter fluorescence, primary and confirmatory (AID 624330); type: functional
T1 sequence (Q9H0H5 whole entry): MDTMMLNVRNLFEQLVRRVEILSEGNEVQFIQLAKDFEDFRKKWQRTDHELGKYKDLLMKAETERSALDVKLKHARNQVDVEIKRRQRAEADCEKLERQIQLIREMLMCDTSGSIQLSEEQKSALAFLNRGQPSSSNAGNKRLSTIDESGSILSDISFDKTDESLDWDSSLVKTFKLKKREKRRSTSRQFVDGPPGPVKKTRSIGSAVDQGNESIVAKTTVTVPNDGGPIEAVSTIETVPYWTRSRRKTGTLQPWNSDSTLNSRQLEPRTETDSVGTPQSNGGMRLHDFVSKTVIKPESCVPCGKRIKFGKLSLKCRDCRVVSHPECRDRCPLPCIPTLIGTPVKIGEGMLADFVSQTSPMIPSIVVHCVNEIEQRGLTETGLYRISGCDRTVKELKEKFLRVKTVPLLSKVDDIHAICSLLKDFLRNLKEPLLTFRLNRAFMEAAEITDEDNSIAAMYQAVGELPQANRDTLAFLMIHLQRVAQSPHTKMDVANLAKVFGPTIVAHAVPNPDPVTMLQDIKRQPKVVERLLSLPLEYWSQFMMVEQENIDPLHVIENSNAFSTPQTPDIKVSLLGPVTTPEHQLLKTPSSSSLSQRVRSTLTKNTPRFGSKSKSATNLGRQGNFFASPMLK

[3] = Luminescence Cell-Based Dose Confirmation HTS to Identify Activators of 5'UTR Stem-Loop Driven Alpha-Synuclein mRNA Translation in H4 Neuroglioblastoma Cells. [Related pubchem assays: 1829 (Project Summary), 1814 (Primary HTS)]; type: functional
Cytochrome P450 3A4 = Cytochrome P450 3A4 (Homo sapiens, UniProt P08684);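 further: CYP3A4 tested as one member of a cytochrome P450 panel screen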
Cytochrome P450 1A2 = molecular target: T2, Cytochrome P450 1A2 (Homo sapiens, UniProt P05177);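 further: PubChem cytochrome P450 panel assay, CYP1A2 panel member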
T2 sequence (P05177 whole entry): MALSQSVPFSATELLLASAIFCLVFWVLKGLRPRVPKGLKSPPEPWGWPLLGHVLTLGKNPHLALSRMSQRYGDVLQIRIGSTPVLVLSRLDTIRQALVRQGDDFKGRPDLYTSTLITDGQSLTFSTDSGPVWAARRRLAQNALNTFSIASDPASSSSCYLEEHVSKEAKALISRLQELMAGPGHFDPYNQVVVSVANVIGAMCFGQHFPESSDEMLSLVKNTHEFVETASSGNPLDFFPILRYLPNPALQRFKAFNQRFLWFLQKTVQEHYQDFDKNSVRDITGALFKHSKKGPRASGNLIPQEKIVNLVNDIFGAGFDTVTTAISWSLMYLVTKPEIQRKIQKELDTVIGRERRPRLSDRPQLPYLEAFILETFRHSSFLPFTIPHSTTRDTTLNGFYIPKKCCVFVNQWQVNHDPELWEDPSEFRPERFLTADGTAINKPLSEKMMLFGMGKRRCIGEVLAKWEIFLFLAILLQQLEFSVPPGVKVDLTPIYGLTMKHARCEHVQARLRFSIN

Cytochrome P450 2D6 = Cytochrome P450 2D6 (Homo sapiens, UniProt P10635);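 further: CYP2D6 member of a cytochrome P450 panel assay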
Sequence of Cytochrome P450 2D6 (P10635 whole entry): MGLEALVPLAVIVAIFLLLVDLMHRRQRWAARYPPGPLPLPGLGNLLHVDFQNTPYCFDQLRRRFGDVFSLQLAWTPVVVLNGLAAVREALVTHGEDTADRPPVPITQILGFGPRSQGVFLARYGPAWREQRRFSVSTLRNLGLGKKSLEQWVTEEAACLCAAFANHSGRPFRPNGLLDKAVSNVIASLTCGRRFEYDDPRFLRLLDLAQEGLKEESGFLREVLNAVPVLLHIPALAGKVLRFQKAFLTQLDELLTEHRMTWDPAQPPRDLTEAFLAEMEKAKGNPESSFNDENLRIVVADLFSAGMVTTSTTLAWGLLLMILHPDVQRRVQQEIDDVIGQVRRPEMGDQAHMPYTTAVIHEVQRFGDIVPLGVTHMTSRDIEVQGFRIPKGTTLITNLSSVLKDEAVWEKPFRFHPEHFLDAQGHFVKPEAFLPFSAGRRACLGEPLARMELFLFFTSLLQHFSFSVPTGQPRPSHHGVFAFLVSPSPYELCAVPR

Sequence of Cytochrome P450 3A4 (P08684 whole entry): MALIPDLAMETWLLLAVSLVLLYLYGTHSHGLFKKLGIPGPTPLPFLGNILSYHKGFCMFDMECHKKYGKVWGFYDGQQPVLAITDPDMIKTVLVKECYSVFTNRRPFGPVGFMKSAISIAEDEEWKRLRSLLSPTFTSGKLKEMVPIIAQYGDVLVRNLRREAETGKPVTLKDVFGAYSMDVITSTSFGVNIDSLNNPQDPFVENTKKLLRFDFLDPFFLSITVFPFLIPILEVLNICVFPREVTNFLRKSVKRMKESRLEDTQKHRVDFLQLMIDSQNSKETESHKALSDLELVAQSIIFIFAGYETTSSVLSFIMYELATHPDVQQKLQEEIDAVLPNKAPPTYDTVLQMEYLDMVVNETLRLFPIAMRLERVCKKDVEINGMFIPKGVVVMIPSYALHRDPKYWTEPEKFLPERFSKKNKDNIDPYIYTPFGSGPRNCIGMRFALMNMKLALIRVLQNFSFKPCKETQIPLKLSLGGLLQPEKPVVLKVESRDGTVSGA
Sequence of Cytochrome P450 2C9 (P11712 whole entry): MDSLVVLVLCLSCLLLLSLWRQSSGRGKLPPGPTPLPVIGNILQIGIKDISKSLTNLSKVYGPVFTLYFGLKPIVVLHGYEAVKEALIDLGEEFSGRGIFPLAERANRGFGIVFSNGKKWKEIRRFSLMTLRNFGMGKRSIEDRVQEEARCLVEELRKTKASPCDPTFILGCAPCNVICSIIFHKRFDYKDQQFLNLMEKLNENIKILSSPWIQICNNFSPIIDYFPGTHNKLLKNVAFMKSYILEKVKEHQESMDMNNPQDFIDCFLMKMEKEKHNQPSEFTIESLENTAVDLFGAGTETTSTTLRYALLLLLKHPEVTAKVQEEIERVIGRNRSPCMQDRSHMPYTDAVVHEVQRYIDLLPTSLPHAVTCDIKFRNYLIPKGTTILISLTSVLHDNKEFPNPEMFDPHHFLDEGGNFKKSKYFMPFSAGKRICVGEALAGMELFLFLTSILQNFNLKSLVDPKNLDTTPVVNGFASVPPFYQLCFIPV
Sequence of Cytochrome P450 2C19 (P33261 whole entry): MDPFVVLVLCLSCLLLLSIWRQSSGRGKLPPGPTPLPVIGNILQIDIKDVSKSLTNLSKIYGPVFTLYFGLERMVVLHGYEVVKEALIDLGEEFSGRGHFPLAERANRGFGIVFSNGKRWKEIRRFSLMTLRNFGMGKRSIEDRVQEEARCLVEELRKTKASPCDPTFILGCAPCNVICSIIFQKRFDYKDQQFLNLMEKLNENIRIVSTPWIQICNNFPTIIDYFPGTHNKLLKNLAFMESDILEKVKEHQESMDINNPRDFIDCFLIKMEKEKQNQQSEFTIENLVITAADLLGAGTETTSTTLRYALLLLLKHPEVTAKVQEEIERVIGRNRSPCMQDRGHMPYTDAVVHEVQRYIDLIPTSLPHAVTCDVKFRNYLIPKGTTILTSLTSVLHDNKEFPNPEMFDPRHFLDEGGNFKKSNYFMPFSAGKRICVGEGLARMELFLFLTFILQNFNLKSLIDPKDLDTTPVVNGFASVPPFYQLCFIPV

With `Oc1c2c(nc3cc(-c4ccccc4Cl)nn13)CCS2` the EC50 (H4) was 21.7 µM (active) and the EC50 [1] was 2.34 µM (active).
In the case of `N=C1c2ccccc2CN1NC(=O)c1ccc(F)cc1`, the AC50 (Cytochrome P450 2C19) is reported as 28.2 µM (inconclusive) and the AC50 (Cytochrome P450 2C9) is reported as 17.8 µM (inconclusive).
In the case of `Cn1c(=O)[nH]c(NCCc2ccc(O)cc2)c([N+](=O)[O-])c1=O`, the IC50 [2] is reported as 219 µM (active).
In the case of `CCCCOc1ccc(-c2nnn(CC(=O)NCc3ccco3)n2)cc1`, the EC50 (H4) is reported as 10 µM (active), the EC50 [1] is reported as 24.3 µM (active) and the EC50 [3] is reported as > 120 µM (not active).
For `CCc1nnc(SCc2ccc(OC(C)C)cc2)n1N`, the AC50 (Cytochrome P450 3A4) was 14.1 µM (inconclusive), the AC50 (Cytochrome P450 1A2) was 15.8 µM (inconclusive) and the AC50 (Cytochrome P450 2C9) was 0.00562 µM (inconclusive).
With `O=C(CCc1ccccc1)Nc1ccc(Cl)cn1` the EC50 (H4) was 19.8 µM (active), the EC50 [1] was 1.18 µM (active) and the EC50 [3] was > 120 µM (not active).
In the case of `c1nc(NC2CC2)c2cc(-c3ccoc3)ccc2n1`, the AC50 (Cytochrome P450 3A4) is reported as 5.01 µM (inconclusive), the AC50 (Cytochrome P450 2C19) is reported as 20 µM (inconclusive) and the AC50 (Cytochrome P450 2D6) is reported as 39.8 µM (inconclusive).
For `O=C(c1cc(-c2ccc3c(c2)OCO3)on1)N1CCN(c2ccccc2)CC1`, the EC50 (H4) was 4.67 µM (active), the EC50 [1] was 0.817 µM (active) and the EC50 [3] was 0.793 µM (active).
In the case of `COC(=O)c1ccc(NC(=S)N2CCN(Cc3cccc(C)c3)CC2)cc1`, the AC50 (Cytochrome P450 2D6) is reported as 35.5 µM (inconclusive).
For `CC/C(=N\O)c1ccc(O)c(OC)c1`, the IC50 [2] was 45.2 µM (active).
For `COc1ccc2c(c1OC)C(=O)N1c3ccccc3SC21` (configuration not stated), the EC50 (H4) was 0.179 µM (active) and the EC50 [1] was 0.124 µM (active).
For `O=C(NC(=S)Nc1ccc(O)cc1)C1CCCC1`, the IC50 [2] was 29.6 µM (active).
In the case of `COC(=O)c1cc(Br)c(=O)n(CCN2CCCC2)c1`, the AC50 (Cytochrome P450 1A2) is reported as 12.6 µM (inconclusive), the AC50 (Cytochrome P450 2C19) is reported as 39.8 µM (inconclusive) and the AC50 (Cytochrome P450 2C9) is reported as 39.8 µM (inconclusive). For the same compound, the AC50 (Cytochrome P450 2D6) was 17.8 µM (inconclusive).
With `O=C(Nc1ccnc(-c2cccnc2)n1)c1ccccc1Cl` the AC50 (Cytochrome P450 2C19) was 14.1 µM (inconclusive) and the AC50 (Cytochrome P450 2D6) was 11.2 µM (inconclusive).
With `O=C(O)C1CSC(c2ccco2)N1` (configuration not stated) the IC50 [2] was 70.6 µM (active).
For `Cc1ccc(-c2nc3ncccc3o2)cc1NC(=O)c1ccc([N+](=O)[O-])o1`, the EC50 (H4) was > 120 µM (not active), the EC50 [1] was > 120 µM (not active) and the EC50 [3] was > 120 µM (not active).
For `COC(=O)C1=C(N)Oc2cc(C)n(CC3CCCO3)c(=O)c2C1c1ccccc1OC` (configuration not stated), the AC50 (Cytochrome P450 2C19) was 22.4 µM (inconclusive) and the AC50 (Cytochrome P450 2C9) was 28.2 µM (inconclusive).
For `CCN(CC)S(=O)(=O)c1ccc(C)c(NC(=O)CN2CCN(Cc3ccccc3)CC2)c1`, the IC50 [2] was 84.8 µM (active).
With `OCCNCCSc1nc(C2CCCCC2)n(-c2ccccc2Cl)n1` the IC50 [2] was 120 µM (active).
With `COc1ccc(N2CCN(c3nc(Nc4ccc(F)cc4)nc(OC)n3)CC2)cc1` the AC50 (Cytochrome P450 3A4) was 3.16 µM (inconclusive), the AC50 (Cytochrome P450 1A2) was 3.16 µM (inconclusive) and the AC50 (Cytochrome P450 2C9) was 3.55 µM (inconclusive).
For `COc1cc2c(cc1N)-c1ccc(N)cc1C2=O`, the IC50 [2] was 12.3 µM (active).
In the case of `CC(/C=N/NC(=O)Cc1cccs1)=C\c1ccco1`, the AC50 (Cytochrome P450 2D6) is reported as 14.1 µM (inconclusive).
In the case of `Cc1ccc(C2CC(C(F)(F)F)n3nc(C(=O)NCCN4CCOCC4)cc3N2)cc1` (configuration not stated), the AC50 (Cytochrome P450 1A2) is reported as 1 µM (inconclusive) and the AC50 (Cytochrome P450 2C9) is reported as 12.6 µM (inconclusive).
For `CC1Cc2ccccc2N1C(=O)CSc1nnnn1C(C)C` (configuration not stated), the AC50 (Cytochrome P450 3A4) was 15.8 µM (inconclusive), the AC50 (Cytochrome P450 1A2) was 15.8 µM (inconclusive) and the AC50 (Cytochrome P450 2C9) was 14.1 µM (inconclusive).
With `CN(C)S(=O)(=O)c1ccc2c(c1)/C(=C/c1cc3c([nH]1)CCCC3)C(=O)N2` the AC50 (Cytochrome P450 2C19) was 7.94 µM (inconclusive), the AC50 (Cytochrome P450 2C9) was 10 µM (inconclusive) and the AC50 (Cytochrome P450 2D6) was 31.6 µM (inconclusive).
